From the supplement of paper PMC10307832

Tests used:
Test in all cases: relative viability (nuclei count vs DMSO), 5 days (fraction); higher = more cells survive
[1] = compound: Nc1ncn([C@H]2C[C@H](O)[C@@H](CO)O2)c(=O)n1 [Decitabine] + Cc1nc(NC(=O)N2CCC[C@H]2C(N)=O)sc1-c1ccnc(C(C)(C)C(F)(F)F)c1 [Alpelisib] (partner 2 µM)
How it was run: (§1)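 Values are medians from duplicate plates. Each reflects relative viability, defined as the nuclei count of treated wells over that of vehicle wells. Lung cancer cell lines in 1536-well plates were pin-tool dosed one day after seeding with one drug alone or with a fixed anchor-drug dose plus five library-drug doses (not always all listed) in √10 steps, then fixed, stained and imaged at 4× after 5 days.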

[2] = compound: COc1cc2c(Oc3ccc4[nH]c(C)cc4c3F)ncnc2cc1OCCCN1CCCC1 [Cediranib] + Cc1nc(Nc2ncc(C(=O)Nc3c(C)cccc3Cl)s2)cc(N2CCN(CCO)CC2)n1 [Dasatinib] (partner 0.075 µM)
How it was run: as §1

[3] = compound: O=C(C[C@H]1NCCC[C@@H]1O)Cn1cnc2cc(Br)c(Cl)cc2c1=O (racemic) [Halofuginone] + Nc1ncn([C@H]2C[C@H](O)[C@@H](CO)O2)c(=O)n1 [Decitabine] (partner 2 µM)
How it was run: as §1

[4] = compound: O=C(C[C@H]1NCCC[C@@H]1O)Cn1cnc2cc(Br)c(Cl)cc2c1=O (racemic) [Halofuginone] + COc1cc2c(Oc3ccc(NC(=O)C4(C(=O)Nc5ccc(F)cc5)CC4)cc3F)ccnc2cc1OCCCN1CCOCC1 [Foretinib] (partner 0.25 µM)
How it was run: as §1

| Cell Line | relative viability ([1]; first compound 0.04 µM) | relative viability ([1]; first compound 0.1265 µM) | relative viability ([1]; first compound 0.4 µM) | relative viability ([1]; first compound 1.265 µM) | relative viability ([1]; first compound 4 µM) | relative viability ([2]; first compound 0.04 µM) | relative viability ([2]; first compound 0.1265 µM) | relative viability ([2]; first compound 0.4 µM) | relative viability ([2]; first compound 1.265 µM) | relative viability ([2]; first compound 4 µM) | relative viability ([3]; first compound 0.001 µM) | relative viability ([3]; first compound 0.003162 µM) | relative viability ([3]; first compound 0.01 µM) | relative viability ([3]; first compound 0.03162 µM) | relative viability ([3]; first compound 0.1 µM) | relative viability ([4]; first compound 0.001 µM) | relative viability ([4]; first compound 0.003162 µM) | relative viability ([4]; first compound 0.01 µM) | relative viability ([4]; first compound 0.03162 µM) | relative viability ([4]; first compound 0.1 µM) |
| --- | --- | --- | --- | --- | --- | --- | --- | --- | --- | --- | --- | --- | --- | --- | --- | --- | --- | --- | --- | --- |
| ABC-1 | 0.833 | 0.816 | 0.786 | 0.731 | 0.753 | 0.536 | 0.651 | 0.448 | 0.474 | 0.457 | 1.11 | 1.39 | 0.926 | 1.26 | 1.04 | 1.28 | 1.38 | 1.07 | 1.13 | 0.9 |
| NCI-H2023 | 0.438 | 0.461 | 0.305 | 0.214 | 0.188 | 0.594 | 0.623 | 0.567 | 0.537 | 0.668 | 0.234 | 0.232 | 0.213 | 0.182 | 0.0828 | 1.11 | 0.636 | 0.826 | 0.288 | 0.139 |
| SW 1573 | 0.7 | 0.912 | 0.61 | 0.274 | 0.298 | 0.646 | 0.661 | 0.43 | 0.389 | 0.524 | 0.627 | 0.552 | 0.491 | 0.282 | 0.135 | 0.959 | 1.05 | 0.945 | 0.943 | 0.762 |
| NCI-H1993 | 0.775 | 0.725 | 0.629 | 0.699 | 0.634 | 0.567 | 0.702 | 0.537 | 0.434 | 0.649 | 0.636 | 0.635 | 0.52 | 0.565 | 0.443 | 0.911 | 0.749 | 0.727 | 0.772 | 0.734 |
| NCI-H661 | 0.432 | 0.44 | 0.313 | 0.246 | 0.342 | 1.01 | 1.28 | 0.842 | 0.926 | 0.976 | 0.595 | 0.618 | 0.564 | 0.555 | 0.479 | 1.05 | 1.01 | 1 | 0.815 | 0.6 |
| NCI-H520 | 0.896 | 0.69 | 0.597 | 0.369 | 0.337 | 0.264 | 0.238 | 0.162 | 0.155 | 0.174 | 0.529 | 0.498 | 0.579 | 0.607 | 0.347 | 0.808 | 0.798 | 0.767 | 0.58 | 0.424 |
| NCI-H2085 | 0.767 | 0.617 | 0.554 | 0.379 | 0.433 | 0.257 | 0.26 | 0.273 | 0.272 | 0.23 | 0.562 | 0.542 | 0.546 | 0.581 | 0.52 | 0.935 | 0.937 | 0.974 | 1.22 | 0.59 |
| NCI-H1651 | 0.834 | 0.902 | 0.861 | 0.718 | 0.633 | 0.53 | 0.46 | 0.432 | 0.385 | 0.343 | 0.592 | 0.563 | 0.601 | 0.591 | 0.58 | 0.91 | 0.814 | 0.696 | 0.519 | 0.416 |
